The results in this text go back to patent US20230158025A1 (UNIVERSITY OF UTAH RESEARCH FOUNDATION, priority 2020, published 2023).

pIC50: −log10 of the molar value. Where two headings read alike, the source gives them in different places.

In one series the target is recombinant mouse GALK1 (Mus musculus, UniProt Q9R0N0). The experiment in a line: mGALK1 biochemical activity assay (Kinase-Glo Plus, ATP depletion). Here is the method:
In vitro hGALK1 activity assays were performed as previously described. Liu et al., Bioorg. […] The biochemical assay was performed by coupling the activity of recombinant human or mouse GALK1 to the Kinase-Glo Plus luminescent ATP detection kit, using ATP depletion as a measure of GALK1 turnover. […] One μL/well of GALK-galactose solution (5 nM GALK1, 100 μM galactose) in assay buffer was then added, yielding a final reaction volume of 4 μL/well. Following a 1-hour room temperature incubation, 4 μL of Kinase-Glo Plus detection reagent was added to provide an ATP-dependent luminescent readout (final assay volume: 8 μL/well).

In a further series the target is recombinant human GALK1 (Homo sapiens, UniProt P51570). Description: hGALK1 biochemical activity assay (Kinase-Glo Plus, ATP depletion). Here is the method: In vitro hGALK1 activity assays were performed as previously described. Liu et al., Bioorg. Med. Chem. Lett. 25(3): 721-727 (2015), which is incorporated by reference herein for the specific teachings thereof. The biochemical assay was performed by coupling the activity of recombinant human or mouse GALK1 to the Kinase-Glo Plus luminescent ATP detection kit, using ATP depletion as a measure of GALK1 turnover. Specifically, three μL/well of ATP substrate solution (35 μM ATP) in assay buffer (20 mM HEPES pH 8.0, 5 mM MgCl2, 60 mM NaCl, 1 mM DTT, 0.01% BSA final concentration) was dispensed into 1536-well assay plates (Greiner, white solid-bottom medium-binding plates). Aliquots of compound (23 nL solubilized in DMSO) were transferred to the assay plates using a Kalypsys 1536-well pintool such that 11 concentrations with 1/3 dilutions ranging from 57.4 μM-0.97 nM are tested. One μL/well of GALK-galactose solution (5 nM GALK1, 100 μM galactose) in assay buffer was then added, yielding a final reaction volume of 4 μL/well. Following a 1-hour room temperature incubation, 4 μL of Kinase-Glo Plus detection reagent was added to provide an ATP-dependent luminescent readout (final assay volume: 8 μL/well).

A short description of series [1]: rat microsomal stability (RLM).
[2] abbreviates: Tables 2-15, 35 μM ATP, 100 μM galactose, 1 h, bracketed figure after some values is undefined and not reported, read-out: mGALK IC50.
Setting [3] is: recombinant mouse GALK1, Kinase-Glo Plus ATP depletion, read-out: mGALK.
The mark [4] stands for this setting: Tables 2-15, 35 μM ATP, 100 μM galactose, 1 h, bracketed figure after some values (e.g. −1.2) is undefined and not reported, read-out: hGALK IC50.
Setting [5] is: recombinant human GALK1, Kinase-Glo Plus ATP depletion, read-out: hGALK.

Chain of recombinant human GALK1 (P51570 whole entry): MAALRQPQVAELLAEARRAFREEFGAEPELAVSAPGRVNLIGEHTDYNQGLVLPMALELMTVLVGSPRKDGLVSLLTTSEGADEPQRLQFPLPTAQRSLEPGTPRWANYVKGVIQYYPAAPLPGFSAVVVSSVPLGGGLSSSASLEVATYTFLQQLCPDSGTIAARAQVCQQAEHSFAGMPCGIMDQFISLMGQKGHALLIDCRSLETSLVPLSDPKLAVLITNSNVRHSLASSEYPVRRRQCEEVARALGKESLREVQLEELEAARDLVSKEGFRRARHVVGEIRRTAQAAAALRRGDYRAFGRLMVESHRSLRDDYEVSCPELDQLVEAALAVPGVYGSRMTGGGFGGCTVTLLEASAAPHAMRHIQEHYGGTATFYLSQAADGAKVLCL
Chain of recombinant mouse GALK1 (Q9R0N0 whole entry): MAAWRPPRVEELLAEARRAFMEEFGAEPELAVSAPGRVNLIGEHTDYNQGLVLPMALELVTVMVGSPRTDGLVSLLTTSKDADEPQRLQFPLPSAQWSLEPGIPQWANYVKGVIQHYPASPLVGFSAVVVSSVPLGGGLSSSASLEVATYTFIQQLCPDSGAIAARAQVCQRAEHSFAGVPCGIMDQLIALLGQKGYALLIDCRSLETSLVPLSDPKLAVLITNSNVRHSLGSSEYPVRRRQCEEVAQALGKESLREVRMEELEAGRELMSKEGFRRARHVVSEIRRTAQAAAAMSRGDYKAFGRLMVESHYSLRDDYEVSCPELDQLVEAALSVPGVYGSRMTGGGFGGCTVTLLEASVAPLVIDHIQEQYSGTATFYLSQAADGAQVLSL

Take `CC1=C(C(=O)Nc2cc(C(=O)O)ccn2)[C@H](c2ccccc2Cl)N=C(Nc2nc3cccc(N)c3o2)N1` [Compound 24, (R)-2-(2-((7-aminobenzo[d]oxazol-2-yl)amino)-4-(2-chlorophenyl)-6-methyl-1,4-dihydropyrimidine-5-carboxamido)isonicotinic acid]: the pIC50 on recombinant mouse GALK1 (setting [2]) is 5.76; at recombinant mouse GALK1 (setting [3]), 5.76; on recombinant human GALK1 (setting [4]), 7.10; at recombinant human GALK1 (setting [5]) it was 6.07.
With `CC1=C(C(=O)Nc2cc(C(=O)O)ccc2C)C(c2ccccc2Cl)N=C(Nc2nc3ccc(F)cc3o2)N1` (stereo not shown) [Compound 28, 3-(4-(2-chlorophenyl)-2-((6-fluorobenzo[d]oxazol-2-yl)amino)-6-methyl-1,4-dihydropyrimidine-5-carboxamido)-4-methylbenzoic acid], the values for the pIC50 at recombinant mouse GALK1 (setting [3]) and at recombinant human GALK1 (setting [5]) were 4.76 and 5.46, respectively.
On to `COC(=O)c1ccnc(NC(=O)C2=C(C)NC(Nc3nc4ccc(F)cc4o3)=N[C@H]2c2ccccc2Cl)c1` [Compound 31, (R)-methyl 2-(4-(2-chlorophenyl)-2-((6-fluorobenzo[d]oxazol-2-yl)amino)-6-methyl-1,4-dihydropyrimidine-5-carboxamido)isonicotinate], for which the “Perm. (1 × 10^−6 cm/sec)” value in “PAMPA permeability” is reported as <21.9 1 × 10^−6 cm/sec. Further, the pIC50 on recombinant mouse GALK1 (setting [3]) is 5.36; at recombinant human GALK1 (setting [5]) it was 5.51. For the same compound, the “Metab. Stabil. (m)” value in series [1] (microsomal half-life) worked out at 30.91 m.
Taken in the same sequence, the figures for `COC(=O)c1ccnc(NC(=O)C2=C(C)NC(Nc3nc4ccc(F)cc4o3)=N[C@@H]2c2ccccc2Cl)c1` [Compound 32, (S)-methyl 2-(4-(2-chlorophenyl)-2-((6-fluorobenzo[d]oxazol-2-yl)amino)-6-methyl-1,4-dihydropyrimidine-5-carboxamido)isonicotinate] were <7.4 1 × 10^−6 cm/sec, 4.06, 4.91 and 24.28 m.
On to `CC1=C(C(=O)NCc2cn(C)cn2)C(c2ccccc2Cl)N=C(Nc2nc3ccc(F)cc3o2)N1` (stereo not shown) [Compound 34, 4-(2-chlorophenyl)-2-((6-fluorobenzo[d]oxazol-2-yl)amino)-6-methyl-N-((1-methyl-1H-imidazol-4-yl)methyl)-1,4-dihydropyrimidine-5-carboxamide], for which the pIC50 on recombinant mouse GALK1 (setting [3]) is 4.71; at recombinant human GALK1 (setting [5]), 5.06.
In the same order, the values of `CC1=C(C(=O)Nc2ccc(-c3nn[nH]n3)cn2)C(c2ccccc2Cl)N=C(Nc2nc3ccc(F)cc3o2)N1` (stereo not shown) [Compound 35, N-(5-(2H-tetrazol-5-yl)pyridin-2-yl)-4-(2-chlorophenyl)-2-((6-fluorobenzo[d]oxazol-2-yl)amino)-6-methyl-1,4-dihydropyrimidine-5-carboxamide] are 4.91 and 5.31.
Taken in the same sequence, the figures for `CC1=C(C(=O)Nc2ccc(C(N)=O)cn2)C(c2ccccc2Cl)N=C(Nc2nc3ccc(F)cc3o2)N1` (stereo not shown) [Compound 36, N-(5-carbamoylpyridin-2-yl)-4-(2-chlorophenyl)-2-((6-fluorobenzo[d]oxazol-2-yl)amino)-6-methyl-1,4-dihydropyrimidine-5-carboxamide] were 5.16 and 5.61.
For the compound `COc1ccc([C@@H]2N=C(Nc3nc4ccc(F)cc4o3)NC(C)=C2C(=O)Nc2cc(C(=O)O)ccn2)c(Cl)c1` [Compound 53, (R)-2-(4-(2-chloro-4-methoxyphenyl)-2-((6-fluorobenzo[d]oxazol-2-yl)amino)-6-methyl-1,4-dihydropyrimidine-5-carboxamido)isonicotinic acid], the pIC50 is 5.70 on recombinant mouse GALK1 (setting [2]), 5.70 on recombinant mouse GALK1 (setting [3]), 6.60 on recombinant human GALK1 (setting [4]) and 6.60 on recombinant human GALK1 (setting [5]).
As to `COc1ccc([C@H]2N=C(Nc3nc4ccc(F)cc4o3)NC(C)=C2C(=O)Nc2cc(C(=O)O)ccn2)c(Cl)c1` [Compound 54, (S)-2-(4-(2-chloro-4-methoxyphenyl)-2-((6-fluorobenzo[d]oxazol-2-yl)amino)-6-methyl-1,4-dihydropyrimidine-5-carboxamido)isonicotinic acid], the pIC50 on recombinant mouse GALK1 (setting [2]) is 4.71; at recombinant mouse GALK1 (setting [3]), 4.71; on recombinant human GALK1 (setting [4]), 5.32; at recombinant human GALK1 (setting [5]), 5.31.
Regarding `CCn1cc(CNC(=O)C2=C(C)NC(Nc3nc4cccc(N)c4o3)=NC2c2ccc(F)cc2Cl)cn1` (stereo not shown) [Compound 118, 2-((7-aminobenzo[d]oxazol-2-yl)amino)-4-(2-chloro-4-fluorophenyl)-N-((1-ethyl-1H-pyrazol-4-yl)methyl)-6-methyl-1,4-dihydropyrimidine-5-carboxamide], the “Perm. (1 × 10^−6 cm/sec)” value in the series “PAMPA permeability” (PAMPA) is on record as 188.9 1 × 10^−6 cm/sec. Moreover, the results for the pIC50 on recombinant mouse GALK1 (setting [3]) and at recombinant human GALK1 (setting [5]) were 5.11 and 6.12, respectively. Besides, the “Metab. Stabil. (m)” value in series [1] (microsomal stability half-life) stood at 18.81 m.
For the compound `COC(=O)c1ccccc1NC(=O)C1=C(C)NC(Nc2nc3ccccc3o2)=NC1c1ccccc1Cl` (stereo not shown) [Compound 146], the “mGALK IC50” value at recombinant mouse GALK1 (Tables 2-15, 35 μM ATP, 100 μM galactose, 1 h, bracketed figure after some values is undefined and not reported) was “inactive”. Also, the “mGALK (μM)” value at recombinant mouse GALK1 (recombinant mouse GALK1, Kinase-Glo Plus ATP depletion) is recorded as “in- active”. Also, the “hGALK IC50” value at recombinant human GALK1 (Tables 2-15, 35 μM ATP, 100 μM galactose, 1 h, bracketed figure after some values (e.g. −1.2) is undefined and not reported) was “inactive”. Further, on recombinant human GALK1 (recombinant human GALK1, Kinase-Glo Plus ATP depletion), the “hGALK (μM)” value is recorded as “in- active”.
With `CC1=C(C(=O)Nc2ccccc2C(=O)O)C(c2ccccc2Cl)N=C(Nc2nc3ccccc3o2)N1` (stereo not shown) [Compound 159, 2-(2-(benzo[d]oxazol-2-ylamino)-4-(2-chlorophenyl)-6-methyl-1,4-dihydropyrimidine-5-carboxamido)benzoic acid], at recombinant human GALK1 (setting [5]), the pIC50 was 4.46.
Turning to `CC1=C(C(=O)Nc2ccc(-c3cn[nH]c3)cc2)C(c2ccccc2Cl)N=C(Nc2nc3ccccc3o2)N1` (stereo not shown) [Compound 179, N-(4-(1H-pyrazol-4-yl)phenyl)-2-(benzo[d]oxazol-2-ylamino)-4-(2-chlorophenyl)-6-methyl-1,4-dihydropyrimidine-5-carboxamide], the pIC50 was 4.91 at recombinant mouse GALK1 (setting [2]), 4.91 on recombinant mouse GALK1 (setting [3]), 5.16 on recombinant human GALK1 (setting [4]) and 5.16 at recombinant human GALK1 (setting [5]).
Consider `CC1=C(C(=O)Nc2ccc(-n3cncn3)cc2)C(c2ccccc2Cl)N=C(Nc2nc3ccccc3o2)N1` (stereo not shown) [Compound 191, N-(4-(1H-1,2,4-triazol-1-yl)phenyl)-2-(benzo[d]oxazol-2-ylamino)-4-(2-chlorophenyl)-6-methyl-1,4-dihydropyrimidine-5-carboxamide], for which the pIC50 on recombinant mouse GALK1 (setting [2]) was 4.46; at recombinant mouse GALK1 (setting [3]) it was 4.46; at recombinant human GALK1 (setting [4]), 4.61; at recombinant human GALK1 (setting [5]) it was 4.61.
On to `CC1=C(C(=O)Nc2nc(C(=O)O)cs2)C(c2ccccc2Cl)N=C(Nc2nc3ccccc3o2)N1` (stereo not shown) [Compound 200, 2-(2-(benzo[d]oxazol-2-ylamino)-4-(2-chlorophenyl)-6-methyl-1,4-dihydropyrimidine-5-carboxamido)thiazole-4-carboxylic acid], for which the pIC50 is 4.71 on recombinant mouse GALK1 (setting [2]), 4.71 at recombinant mouse GALK1 (setting [3]), 5.01 at recombinant human GALK1 (setting [4]) and 5.01 at recombinant human GALK1 (setting [5]).
On to `CC1=C(C(=O)Nc2cccc(CCO)c2)C(c2ccccc2Cl)N=C(Nc2nc3ccccc3o2)N1` (stereo not shown) [Compound 201, 2-(benzo[d]oxazol-2-ylamino)-4-(2-chlorophenyl)-N-(3-(2-hydroxyethyl)phenyl)-6-methyl-1,4-dihydropyrimidine-5-carboxamide], for which the “Metab. Stabil. (m)” value in series [1] (microsomal stability half-life) is 26.59 m. Moreover, the pIC50 at recombinant human GALK1 (setting [4]) and on recombinant human GALK1 (setting [5]) was 4.76 in each case.
